Among the data in BindingDB's records for PubMed 37722288 (Southwest Jiaotong University) are IC50 values, retold here.

Assay [1] concerns the target Cyclin-dependent kinase 9/cyclin T1 (Homo sapiens). Kind of assay: Inhibition of CDK9/cyclin T1 (unknown origin).
Assay [2] has as its target Glycogen synthase kinase-3 beta (Homo sapiens) (UniProt P49841). The assay is described as follows: Inhibition of human recombinant GSK3beta.
Assay [3] concerns the target Glycogen synthase kinase-3 alpha (Homo sapiens, UniProt P49840). Kind of assay: Inhibition of human recombinant GSK3alpha.

Chain of Glycogen synthase kinase-3 alpha (P49840 whole entry): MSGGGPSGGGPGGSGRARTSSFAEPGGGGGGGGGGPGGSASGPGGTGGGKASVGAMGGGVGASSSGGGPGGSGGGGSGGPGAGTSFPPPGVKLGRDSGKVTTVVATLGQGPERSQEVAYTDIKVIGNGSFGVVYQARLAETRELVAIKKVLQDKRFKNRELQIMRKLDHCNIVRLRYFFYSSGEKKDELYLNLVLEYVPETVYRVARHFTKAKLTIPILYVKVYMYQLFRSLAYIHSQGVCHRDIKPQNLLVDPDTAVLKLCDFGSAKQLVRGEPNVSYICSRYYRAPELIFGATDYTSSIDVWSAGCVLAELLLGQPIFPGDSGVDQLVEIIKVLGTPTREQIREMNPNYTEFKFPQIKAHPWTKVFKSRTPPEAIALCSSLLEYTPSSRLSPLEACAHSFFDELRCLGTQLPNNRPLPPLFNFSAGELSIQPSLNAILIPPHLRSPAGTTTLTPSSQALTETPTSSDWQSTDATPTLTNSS
Chain of Glycogen synthase kinase-3 beta (Homo sapiens) (P49841 whole entry, looked up): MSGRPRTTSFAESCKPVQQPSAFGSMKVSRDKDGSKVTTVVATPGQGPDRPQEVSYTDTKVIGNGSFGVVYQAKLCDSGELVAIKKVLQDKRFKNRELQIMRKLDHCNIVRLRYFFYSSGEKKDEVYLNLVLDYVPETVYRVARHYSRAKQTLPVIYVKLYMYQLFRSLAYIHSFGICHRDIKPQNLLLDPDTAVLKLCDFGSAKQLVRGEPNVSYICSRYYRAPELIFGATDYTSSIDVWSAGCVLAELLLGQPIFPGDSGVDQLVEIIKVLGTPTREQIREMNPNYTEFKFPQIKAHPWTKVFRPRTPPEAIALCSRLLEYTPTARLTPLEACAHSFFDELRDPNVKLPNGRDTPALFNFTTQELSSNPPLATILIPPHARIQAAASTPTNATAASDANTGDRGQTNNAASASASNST

As usually defined, the IC50 is the concentration needed to halve the response being measured. The compound `COc1cc(CC(=O)Nc2cc(C3CCC3)[nH]n2)cc(OC)c1OC` gave an IC50 in assay [1] of 5.71 µM. For `CCN1CCC(NC(=O)c2c(C)noc2C(C)C)CC1` [Name not given], in assay [2], the IC50 came to 9.1 µM. As for `COc1ncccc1C(=O)Nc1cc(S(C)(=O)=O)ccc1N1CCC(Oc2ccc(F)cc2F)CC1` [Name not given], the IC50 in assay [3] was found to be 2.3 µM.
